Source: US9809602B2, “Compounds for treating viral infections” (INSTITUT PASTEUR KOREA, priority 2014, dated 2017)

System: genotype 1/2 chimeric cell culture derived HCV (HCVcc)
Test: Genotype 1/2 chimeric HCVcc assay (nano-luciferase, HCV replication)
Assay type: cell-based
Conditions: Hepatitis C virus, Huh7.5, 72 h
Description: Naïve Huh-7.5 target cells were plated at 2400 cells/well in 25 μL of culture media in 384-well plates (Greiner bio-one, μ clear black). After overnight incubation, compounds serially diluted in 10 μL of cell culture media were added. After 2 h compound treatment, cells were inoculated with 40 μL of genotype 1/2 chimeric cell culture derived HCV (HCVcc) which express structural proteins of an HCV genotype 1a isolate (TN accession number EF621489) and non-structural proteins of HCV genotype 2a (JFH-1) with nano-luciferase reporter. At 72 h post infection, nano-luciferase activity (Nano-Glo™, Promega) and cellular ATP (Cell titer-Glo™, Promega) were measured as a marker for HCV replication and cytotoxicity, respectively. EC50 and CC50 were calculated by non-linear regression analyzing using GraphPad Prism (GraphPad Software).

| SMILES | EC50 [nM] |
| --- | --- |
| Cc1c(CN(C)C)sc(C(F)(F)F)c1CNC(=O)Nc1sc2c(c1C(=O)OC(C)(C)C)CCCC2 [Compound 134] | < 100 |
| CCN(C)Cc1sc(-n2cccc2)c(CNC(=O)Nc2sc3c(c2C(=O)OC(C)(C)C)CCCC3)c1C [Compound 136] | < 100 |
| Cc1sc(NC(=O)NCc2c(C(F)(F)F)sc3c2CCNC3)c(C(=O)OC(C)(C)C)c1C [Compound 137] | < 100 |
| Cc1sc(NC(=O)NCc2c(Br)sc3c2CCNC3)c(C(=O)OC(C)(C)C)c1C [Compound 138] | < 100 |
| CC(C)OC(=O)c1c(NC(=O)NCc2c(Br)sc3c2CCNC3)sc2c1CCCC2 [Compound 140] | < 100 |
| CC(C)OC(=O)c1c(NC(=O)NCc2c(-n3cccc3)sc3c2CCNC3)sc2c1CCCC2 [Compound 141] | < 100 |
| COC(=O)c1c(NC(=O)NCc2c(-n3cccc3)sc3c2CCNC3)sc2c1CCCC2 [Compound 142] | 100 to 1000 |
| CC(C)(C)OC(=O)c1c(NC(=O)NCc2c(N3CCCC3)sc3c2CCNC3)sc2c1CCCC2 [Compound 143] | < 100 |
| CN1CCN(c2sc3c(c2CNC(=O)Nc2sc4c(c2C(=O)OC(C)(C)C)CCCC4)CCNC3)CC1 [Compound 144] | 100 to 1000 |
| CC(C)(C)OC(=O)c1c(NC(=O)NCc2c(-c3ccncc3)sc3c2CCNC3)sc2c1CCCC2 [Compound 145] | < 100 |
| CC(C)(C)OC(=O)c1c(NC(=O)NCc2c(-c3ccc(C(F)(F)F)cc3)sc3c2CCNC3)sc2c1CCCC2 [Compound 146] | < 100 |
| Cc1nnc(-c2c(NC(=O)NCc3c(C(F)(F)F)sc4c3CCNC4)sc(C)c2C)o1 [Compound 149] | < 100 |
| CCOC(=O)c1c(NC(=O)NCc2c(C(F)(F)F)sc3c2CCNC3)sc2c1CCOC2 [Compound 150] | < 100 |
| CCOC(=O)c1c(NC(=O)NCc2c(-n3cccc3)sc3c2CCN(CC)C3)sc2c1C(C)CCC2 (centres unmarked) [Compound 151] | < 100 |
| CCOC(=O)c1c(NC(=O)NCc2c(-n3cccc3)sc3c2CCN(C)C3)sc2c1C(C)CCC2 (centres unmarked) [Compound 152] | < 100 |
| CCOC(=O)c1c(NC(=O)NCc2c(-n3cccc3)sc3c2CCN(CC)C3)sc2c1CCC(C)C2 (centres unmarked) [Compound 153] | < 100 |
| CCOC(=O)c1c(NC(=O)NCc2c(-n3cccc3)sc3c2CCN(C)C3)sc2c1CCC(C)C2 (centres unmarked) [Compound 154] | < 100 |
| COC(=O)c1c(NC(=O)NCc2c(-n3cccc3)sc3c2CCN(C)C3)sc2c1CCCC2 [Compound 155] | 100 to 1000 |
| CC(C)OC(=O)c1c(NC(=O)NCc2c(-n3cccc3)sc3c2CCN(C)C3)sc2c1CCCC2 [Compound 156] | < 100 |
| CCN1CCc2c(sc(-n3cccc3)c2CNC(=O)Nc2sc3c(c2C(=O)OC(C)C)CCCC3)C1 [Compound 157] | < 100 |
| CNCc1sc(-n2cccc2)c(CNC(=O)Nc2sc3c(c2C(=O)OC(C)(C)C)CCCC3)c1C [Compound 158] | 100 to 1000 |
| CC(C)(C)OC(=O)c1c(NC(=O)NCc2c(-c3ccc(F)cc3)sc3c2CCNC3)sc2c1CCCC2 [Compound 159] | < 100 |
| CC(C)(C)OC(=O)c1c(NC(=O)NCc2c(-c3cccc(F)c3)sc3c2CCNC3)sc2c1CCCC2 [Compound 160] | < 100 |
| CC(C)(C)OC(=O)c1c(NC(=O)NCc2c(-c3ccccc3C(F)(F)F)sc3c2CCNC3)sc2c1CCCC2 [Compound 161] | 100 to 1000 |

| SMILES | EC50 [nM] |
| --- | --- |
| Cc1nnc(-c2c(NC(=O)NCc3c(Br)sc4c3CCNC4)sc(C)c2C)o1 [Compound 162] | < 100 |
| CCOC(=O)c1c(NC(=O)NCc2c(Br)sc3c2CCNC3)sc2c1CCOC2 [Compound 163] | < 100 |
| CCOC(=O)c1c(NC(=O)NCc2c(Br)sc3c2CCNC3)sc2c1C(C)CCC2 (centres unmarked) [Compound 164] | < 100 |
| CCOC(=O)c1c(NC(=O)NCc2c(Br)sc3c2CCNC3)sc2c1CCC(C)C2 (centres unmarked) [Compound 165] | < 100 |
| CCOC(=O)c1c(NC(=O)NCc2c(C(F)(F)F)sc3c2CCNC3)sc2c1CCC(C)C2 (centres unmarked) [Compound 166] | < 100 |
| CC(C)OC(=O)c1c(NC(=O)NCc2c(C(F)(F)F)sc3c2CCNC3)sc2c1CCCC2 [Compound 167] | < 100 |
| CC(C)OC(=O)c1c(NC(=O)NCc2c(C(F)(F)F)sc3c2CCN(C)C3)sc2c1CCCC2 [Compound 169] | < 100 |
| CC(C)OC(=O)c1c(NC(=O)NCc2c(C(F)(F)F)sc3c2CC[N+](C)(C)C3)sc2c1CCCC2 [Compound 170] | < 100 |
| CCN1CCc2c(sc(C(F)(F)F)c2CNC(=O)Nc2sc3c(c2C(=O)OC(C)C)CCCC3)C1 [Compound 171] | < 100 |
| CC(C)OC(=O)c1c(NC(=O)NCc2c(Br)sc3c2CCN(C)C3)sc2c1CCCC2 [Compound 172] | < 100 |
| CC(C)OC(=O)c1c(NC(=O)NCc2c(Br)sc3c2CC[N+](C)(C)C3)sc2c1CCCC2 [Compound 173] | < 100 |
| CCN1CCc2c(sc(Br)c2CNC(=O)Nc2sc3c(c2C(=O)OC(C)C)CCCC3)C1 [Compound 174] | < 100 |
| COC(=O)c1c(NC(=O)NCc2c(Br)sc3c2CCN(C)C3)sc2c1CCCC2 [Compound 175] | < 100 |
| COC(=O)c1c(NC(=O)NCc2c(Br)sc3c2CC[N+](C)(C)C3)sc2c1CCCC2 [Compound 176] | < 100 |
| CCN1CCc2c(sc(Br)c2CNC(=O)Nc2sc3c(c2C(=O)OC)CCCC3)C1 [Compound 177] | < 100 |
| CCN1CCc2c(sc(C(F)(F)F)c2CNC(=O)Nc2sc3c(c2C(=O)OC)CCCC3)C1 [Compound 178] | < 100 |
| CC(C)(C)OC(=O)c1c(NC(=O)NCc2c(-c3ccc(Cl)cc3)sc3c2CCNC3)sc2c1CCCC2 [Compound 179] | < 100 |
| CC(C)(C)OC(=O)c1c(NC(=O)NCc2c(-c3cccc(Cl)c3)sc3c2CCNC3)sc2c1CCCC2 [Compound 180] | < 100 |
| CCc1sc2c(c1CNC(=O)Nc1sc3c(c1C(=O)OC(C)(C)C)CCCC3)CCNC2 [Compound 181] | < 100 |
| Cn1ccc(-c2sc3c(c2CNC(=O)Nc2sc4c(c2C(=O)OC(C)(C)C)CCCC4)CCNC3)c1 [Compound 182] | < 100 |
| CC(C)(C)OC(=O)c1c(NC(=O)NCc2c(-c3ccoc3)sc3c2CCNC3)sc2c1CCCC2 [Compound 183] | < 100 |
| CN1CCc2c(sc(C(F)(F)F)c2CNC(=O)Nc2sc3c(c2C(=O)OC(C)(C)C)CCCC3)C1 [Compound 184] | < 100 |
| CN1CCc2c(sc(Br)c2CNC(=O)Nc2sc3c(c2C(=O)OC(C)(C)C)CCCC3)C1 [Compound 185] | < 100 |
| CC(C)N1CCc2c(sc(C(F)(F)F)c2CNC(=O)Nc2sc3c(c2C(=O)OC(C)(C)C)CCCC3)C1 [Compound 186] | < 100 |

| SMILES | EC50 [nM] |
| --- | --- |
| CC(C)N1CCc2c(sc(Br)c2CNC(=O)Nc2sc3c(c2C(=O)OC(C)(C)C)CCCC3)C1 [Compound 187] | < 100 |
| CCOC(=O)c1c(NC(=O)NCc2csc(CN(C)C)c2C)sc2c1CCCC2 [Compound 188] | < 100 |
| Cc1c(CNC(=O)Nc2sc3c(c2C(=O)OC(C)(C)C)CCCC3)csc1CN(C)C [Compound 189] | < 100 |
| CCOC(=O)c1c(NC(=O)NCc2c(C(F)(F)F)sc3c2CCNC3)sc2c1C(C)CCC2 (centres unmarked) [Compound 190] | < 100 |
| CCOC(=O)c1c(NC(=O)NCc2c(-n3cccc3)sc3c2CCN(C)C3)sc2c1CC(C)CC2 (centres unmarked) [Compound 191] | < 100 |
| CCOC(=O)c1c(NC(=O)NCc2c(-n3cccc3)sc3c2CCN(CC)C3)sc2c1CC(C)CC2 (centres unmarked) [Compound 192] | < 100 |
| CCOC(=O)c1c(NC(=O)NCc2c(Br)sc3c2CCNC3)sc2c1CC(C)CC2 (centres unmarked) [Compound 193] | < 100 |
| CCOC(=O)c1c(NC(=O)NCc2c(C(F)(F)F)sc3c2CCNC3)sc2c1CC(C)CC2 (centres unmarked) [Compound 194] | < 100 |
| CCN1CCc2c(sc(-n3cccc3)c2CNC(=O)Nc2sc(C)c(C)c2C(=O)OC(C)C)C1 [Compound 195] | < 100 |
| Cc1sc(NC(=O)NCc2c(-n3cccc3)sc3c2CCN(C)C3)c(C(=O)OC(C)C)c1C [Compound 196] | < 100 |
| CCOC(=O)c1c(NC(=O)NCc2c(C(F)(F)F)sc3c2CCN(C)C3)sc2c1CCCC2 [Compound 197] | < 100 |
| CCOC(=O)c1c(NC(=O)NCc2c(C(F)(F)F)sc3c2CCN(C(C)C)C3)sc2c1CCCC2 [Compound 198] | < 100 |
| CCOC(=O)c1c(NC(=O)NCc2c(Br)sc3c2CCN(C)C3)sc2c1CCCC2 [Compound 199] | < 100 |
| CCOC(=O)c1c(NC(=O)NCc2c(Br)sc3c2CCN(C(C)C)C3)sc2c1CCCC2 [Compound 200] | < 100 |
| CC(C)(C)OC(=O)c1c(NC(=O)NCc2c(-c3ccc4cc[nH]c4c3)sc3c2CCNC3)sc2c1CCCC2 [Compound 201] | 1000 to 10000 |
| CCN1CCc2c(sc(-n3cccc3)c2C(C)(C)NC(=O)Nc2sc3c(c2C(=O)OC(C)(C)C)CCCC3)C1 [Compound 202] | 1000 to 10000 |
| CC(C)(C)OC(=O)c1c(NC(=O)NCc2c(-c3ccsc3)sc3c2CCNC3)sc2c1CCCC2 [Compound 203] | < 100 |
| CC(C)(C)OC(=O)c1c(NC(=O)NCc2c(-c3cccc(C(F)(F)F)c3)sc3c2CCNC3)sc2c1CCCC2 [Compound 204] | 100 to 1000 |
| CCOC(=O)c1c(NC(=O)NCc2c(-n3cccc3)sc3c2CCN(CC)C3)sc2c1CC(C)CC2C (centres unmarked) [Compound 205] | < 100 |
| CCOC(=O)c1c(NC(=O)NCc2c(-n3cccc3)sc3c2CCN(C)C3)sc2c1CC(C)CC2C (centres unmarked) [Compound 206] | < 100 |
| CCOC(=O)c1c(NC(=O)NCc2c(Br)sc3c2CCNC3)sc2c1CC(C)CC2C (centres unmarked) [Compound 207] | < 100 |
| CCOC(=O)c1c(NC(=O)NCc2c(C(F)(F)F)sc3c2CCNC3)sc2c1CC(C)CC2C (centres unmarked) [Compound 208] | < 100 |
| CCN1CCc2c(sc(-n3cccc3)c2CNC(=O)Nc2sc3c(c2C(=O)NNC(C)C)CCCC3)C1 [Compound 209] | < 100 |
